Data as given in PubChem BioAssay AID326 (DTP/NCI, 2004).
Where “and” joins values, the source holds several entries; their conditions need not be identical. Equal values may be shown once. Inconclusive results and toxic doses are left out. Numbered stars: 1 amine (or outer) side, 2 acyl side, 3 side chain; on linkers, the order of the positions; unused ones are H or OH. Bridge positions count the residues as written; N and C are the ends. Square brackets hold non-standard residues; d marks the D form. Peptide text beside a SMILES is read from it. I, II: the chains in the order shown. Actinocin(9to1) = Cc1c2oc3c(C)ccc(C(=O)[*:1])c3nc-2c(C(=O)[*:2])c(N)c1=O; aThr = C[C@H](O)[C@H](N)C(=O)O; NMeV = CN[C@H](C(=O)O)C(C)C; Sar = CNCC(=O)O

System: CD2F1 mice, P388/DHAQ leukemia ip, median survival T/C
Assay: NCI In Vivo Anticancer Drug Screen. Data for tumor model P388 Leukemia resistant to Dihydroxy Anthracenedione; NSC 299195 (intraperitoneal) in CD2F1 (CDF1) mice
Conditions: endpoint: median survival time, higher = longer survival
Protocol: The antitumor activity of compounds was measured in mice bearing transplantable tumors. Survival or tumor size were measured and the results are expressed as the measurement made in the treated group (T) divided by the measurement made in the vehicle treated control group (C). The tumor model used in this assay is P388 Leukemia resistant to Dihydroxy Anthracenedione; NSC 299195 (intraperitoneal) in CD2F1 (CDF1) mice

[1] = dose: 4.32 mg/kg/injection, schedule: Q04DX003 (ip), vehicle: saline
[2] = dose: 7.2 mg/kg/injection, schedule: Q04DX003 (ip), vehicle: saline
[3] = dose: 12.0 mg/kg/injection, schedule: Q04DX003 (ip), vehicle: saline
[4] = dose: 64.8 mg/kg/injection, schedule: Q04DX003 (ip), vehicle: saline
[5] = dose: 108.0 mg/kg/injection, schedule: Q04DX003 (ip), vehicle: saline

SMILES: Cc1c2oc3c(C)ccc(C(=O)N[C@@H]4C(=O)N[C@H](C(C)C)C(=O)N5CCC[C@H]5C(=O)N(C)CC(=O)N(C)[C@@H](C(C)C)C(=O)O[C@H]4C)c3nc-2c(C(=O)N[C@@H]2C(=O)N[C@H](C(C)C)C(=O)N3CCC[C@H]3C(=O)N(C)CC(=O)N(C)[C@@H](C(C)C)C(=O)O[C@H]2C)c(N)c1=O (I: [aThr][dV]P[Sar][NMeV] / II: [aThr][dV]P[Sar][NMeV]; ester I:1-I:C, II:1-II:C; linker I:N-II:N via Actinocin(9to1))
- T/C (dose: 108.0 micrograms/kg/injection, schedule: Q04DX003 (ip), vehicle: saline + alcohol): 152 % of control and 154 % of control
- T/C (dose: 130.0 micrograms/kg/injection, schedule: Q04DX003 (ip), vehicle: saline + alcohol): 152 % of control
- T/C (dose: 180.0 micrograms/kg/injection, schedule: Q04DX003 (ip), vehicle: saline + alcohol): 157 % of control and 176 % of control
- T/C (dose: 216.0 micrograms/kg/injection, schedule: Q04DX003 (ip), vehicle: saline + alcohol): 200 % of control
- T/C (dose: 300.0 micrograms/kg/injection, schedule: Q04DX003 (ip), vehicle: saline + alcohol): 192 % of control and 201 % of control
- T/C (dose: 360.0 micrograms/kg/injection, schedule: Q04DX003 (ip), vehicle: saline + alcohol): 206 % of control
- T/C (dose: 500.0 micrograms/kg/injection, schedule: Q04DX003 (ip), vehicle: saline + alcohol): 209 % of control
- T/C (dose: 600.0 micrograms/kg/injection, schedule: Q04DX003 (ip), vehicle: saline + alcohol): 227 % of control

SMILES: CO[C@H](C(=O)[C@@H](O)[C@@H](C)O)[C@@H]1Cc2cc3cc(OC4CC(OC5CC(O)C(O)C(C)O5)C(O)C(C)O4)c(C)c(O)c3c(O)c2C(=O)[C@H]1OC1CC(OC2CC(OC3CC(C)(O)C(O)C(C)O3)C(O)C(C)O2)C(O)C(C)O1 (stereo partly drawn)
- T/C (dose: 0.22 mg/kg/injection, schedule: Q01DX005 (ip), vehicle: clinical formulation): 112 % of control
- T/C (dose: 0.36 mg/kg/injection, schedule: Q01DX005 (ip), vehicle: clinical formulation): 110 % of control
- T/C (dose: 0.6 mg/kg/injection, schedule: Q01DX005 (ip), vehicle: clinical formulation): 120 % of control
- T/C (dose: 1.0 mg/kg/injection, schedule: Q01DX005 (ip), vehicle: clinical formulation): 123 % of control

SMILES: CC[C@H]1CN2CCc3cc(OC)c(OC)cc3[C@@H]2C[C@@H]1C[C@H]1NCCc2cc(OC)c(OC)cc21
- T/C [1]: 111 % of control
- T/C (dose: 5.18 mg/kg/injection, schedule: Q04DX003 (ip), vehicle: saline): 111 % of control
- T/C [2]: 121 % of control
- T/C (dose: 8.64 mg/kg/injection, schedule: Q04DX003 (ip), vehicle: saline): 121 % of control
- T/C [3]: 121 % of control
- T/C (dose: 14.4 mg/kg/injection, schedule: Q04DX003 (ip), vehicle: saline): 156 % of control
- T/C (dose: 24.0 mg/kg/injection, schedule: Q04DX003 (ip), vehicle: saline): 175 % of control and 228 % of control

SMILES: CC[C@@]1(O)C[C@H](OC2CC(N(C)C)C(OC3CC(O)C(OC4CCC(=O)C(C)O4)C(C)O3)C(C)O2)c2c(cc3c(c2O)C(=O)c2c(O)ccc(O)c2C3=O)[C@H]1C(=O)OC (stereo partly drawn)
- T/C (dose: 1.56 mg/kg/injection, schedule: Q04DX003 (ip), vehicle: saline): 116 % of control
- T/C [1]: 162 % of control
- T/C [2]: 189 % of control and 190 % of control and 220 % of control

SMILES: O=C1c2ccccc2C(=O)c2c(NCCNCCO)ccc(NCCNCCO)c21
- T/C (dose: 13.0 mg/kg/injection, schedule: Q04DX003 (ip), vehicle: saline): 109 % of control
- T/C (dose: 21.6 mg/kg/injection, schedule: Q04DX003 (ip), vehicle: saline): 120 % of control
- T/C (dose: 36.0 mg/kg/injection, schedule: Q04DX003 (ip), vehicle: saline): 123 % of control
- T/C (dose: 60.0 mg/kg/injection, schedule: Q04DX003 (ip), vehicle: saline): 108 % of control

SMILES: COC(=O)C[C@](O)(CCCC(C)(C)O)C(=O)O[C@@H]1C(OC)=C[C@]23CCCN2CCc2cc4c(cc2[C@H]13)OCO4
- T/C (dose: 3.0 mg/kg/injection, schedule: Q04DX003 (ip), vehicle: saline): 116 % of control
- T/C (dose: 3.33 mg/kg/injection, schedule: Q04DX003 (ip), vehicle: saline): 154 % of control

SMILES: O=CC(NC(=O)N(CCCl)N=O)C(O)C(O)C(O)CO (stereo not drawn)
- T/C (dose: 7.2 mg/kg/injection, schedule: Q04DX002 (ip), vehicle: saline): 201 % of control
- T/C (dose: 12.0 mg/kg/injection, schedule: Q04DX002 (ip), vehicle: saline): 181 % of control
- T/C (dose: 20.0 mg/kg/injection, schedule: Q04DX002 (ip), vehicle: saline): 412 % of control

SMILES: O=NN(CCCl)C(=O)NCCCl
- T/C (dose: 5.4 mg/kg/injection, schedule: Q04DX003 (ip), vehicle: saline + alcohol): 193 % of control
- T/C (dose: 6.48 mg/kg/injection, schedule: Q04DX002 (ip), vehicle: saline + alcohol): 150 % of control
- T/C (dose: 9.0 mg/kg/injection, schedule: Q04DX003 (ip), vehicle: saline + alcohol): 319 % of control
- T/C (dose: 10.8 mg/kg/injection, schedule: Q04DX002 (ip), vehicle: saline + alcohol): 168 % of control and 205 % of control
- T/C (dose: 15.0 mg/kg/injection, schedule: Q04DX003 (ip), vehicle: saline + alcohol): 463 % of control
- T/C (dose: 18.0 mg/kg/injection, schedule: Q04DX002 (ip), vehicle: saline + alcohol): 317 % of control and 412 % of control
- T/C (dose: 25.0 mg/kg/injection, schedule: Q04DX003 (ip), vehicle: saline + alcohol): 463 % of control
- T/C (dose: 30.0 mg/kg/injection, schedule: Q04DX002 (ip), vehicle: saline + alcohol): 412 % of control and 420 % of control

SMILES: CC[C@@]1(O)C[C@H](OC2CC(N(C)C)C(OC3CC(O)C(OC4CCC(=O)C(C)O4)C(C)O3)C(C)O2)c2c(cc3c(c2O)C(=O)c2c(O)cccc2C3=O)[C@H]1C(=O)OC (stereo partly drawn)
- T/C [1]: 120 % of control
- T/C [3]: 196 % of control

SMILES: NCCCN=c1ccc2c3c1c(O)c1c(O)ccc(=O)c1c3[nH]n2CCNCCO
- T/C (dose: 9.72 mg/kg/injection, schedule: Q04DX002 (ip), vehicle: water): 124 % of control
- T/C (dose: 27.0 mg/kg/injection, schedule: Q04DX002 (ip), vehicle: water): 97 % of control
- T/C (dose: 45.0 mg/kg/injection, schedule: Q04DX002 (ip), vehicle: water): 97 % of control

SMILES: CC(CN1CC(=O)NC(=O)C1)N1CC(=O)NC(=O)C1 (stereo not drawn)
- T/C [4]: 101 % of control
- T/C [5]: 104 % of control
- T/C (dose: 180.0 mg/kg/injection, schedule: Q04DX003 (ip), vehicle: saline): 107 % of control
- T/C (dose: 500.0 mg/kg/injection, schedule: Q04DX003 (ip), vehicle: saline): 123 % of control

SMILES: C(=N/NC1=NCCN1)/c1c2ccccc2c(/C=N\NC2=NCCN2)c2ccccc12
- T/C (dose: 5.18 mg/kg/injection, schedule: Q04DX002 (ip), vehicle: saline): 103 % of control
- T/C (dose: 8.64 mg/kg/injection, schedule: Q04DX002 (ip), vehicle: saline): 108 % of control
- T/C (dose: 13.0 mg/kg/injection, schedule: Q04DX002 (ip), vehicle: water): 111 % of control
- T/C (dose: 14.4 mg/kg/injection, schedule: Q04DX002 (ip), vehicle: saline): 105 % of control
- T/C (dose: 21.6 mg/kg/injection, schedule: Q04DX002 (ip), vehicle: water): 118 % of control
- T/C (dose: 36.0 mg/kg/injection, schedule: Q04DX002 (ip), vehicle: water): 111 % of control
- T/C (dose: 40.0 mg/kg/injection, schedule: Q04DX002 (ip), vehicle: saline): 98 % of control
- T/C (dose: 60.0 mg/kg/injection, schedule: Q04DX002 (ip), vehicle: water): 109 % of control

SMILES: CCN(CC)CCNc1ccc(C)c2sc3ccccc3c(=O)c12
- T/C (dose: 16.2 mg/kg/injection, schedule: Q01DX005 (ip), vehicle: saline): 106 % of control
- T/C (dose: 19.4 mg/kg/injection, schedule: Q01DX005 (ip), vehicle: saline): 100 % of control
- T/C (dose: 19.44 mg/kg/injection, schedule: Q01DX005 (ip), vehicle: saline): 106 % of control
- T/C (dose: 27.0 mg/kg/injection, schedule: Q01DX005 (ip), vehicle: saline): 107 % of control
- T/C (dose: 32.4 mg/kg/injection, schedule: Q01DX005 (ip), vehicle: saline): 102 % of control and 113 % of control
- T/C (dose: 38.9 mg/kg/injection, schedule: Q04DX003 (ip), vehicle: saline): 106 % of control
- T/C (dose: 45.0 mg/kg/injection, schedule: Q01DX005 (ip), vehicle: saline): 121 % of control
- T/C (dose: 54.0 mg/kg/injection, schedule: Q01DX005 (ip), vehicle: saline): 106 % of control and 124 % of control
- T/C [4]: 104 % of control
- T/C (dose: 90.0 mg/kg/injection, schedule: Q01DX005 (ip), vehicle: saline): 112 % of control
- T/C [5]: 120 % of control
- T/C (dose: 125.0 mg/kg/injection, schedule: Q01DX005 (ip), vehicle: saline): 105 % of control
